As usually defined, the ED50 is the dose that gives a 50% effect, or the effect in half of the subjects. The Ki is the dissociation constant of the complex between target and ligand, obtained from inhibition or displacement.

The values that follow come from PMC5403251 (Neuropharmacology, 2016).

SMILES strings stand for the structures.

Assay [1] relates to C57BL/6J mice. Nature of the assay: Discrete-trials temporal discrimination task. The assay is classed as in vivo, mouse.
In assay [2] the test system is C57BL/6J mice. In words: Head twitch response. The assay is classed as in vivo, mouse.
For the next assay, the target named is T1, human 5-HT2C receptor (Homo sapiens, UniProt P28335).
T1 sequence (P28335 33-458): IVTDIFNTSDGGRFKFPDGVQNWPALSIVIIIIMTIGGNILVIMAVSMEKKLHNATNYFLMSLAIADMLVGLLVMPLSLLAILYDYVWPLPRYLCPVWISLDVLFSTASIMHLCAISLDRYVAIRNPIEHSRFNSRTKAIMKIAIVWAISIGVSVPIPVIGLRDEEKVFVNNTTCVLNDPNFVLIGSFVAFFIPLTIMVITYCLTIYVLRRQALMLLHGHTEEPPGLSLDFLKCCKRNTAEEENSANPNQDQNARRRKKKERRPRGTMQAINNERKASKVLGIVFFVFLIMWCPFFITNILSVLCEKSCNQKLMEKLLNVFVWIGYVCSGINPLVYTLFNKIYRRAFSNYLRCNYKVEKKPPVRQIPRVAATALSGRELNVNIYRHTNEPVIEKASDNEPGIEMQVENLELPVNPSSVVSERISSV
In words: NIMH PDSP competitive radioligand binding, [3H]mesulergine.

A further assay concerns the target T2, α2C (Homo sapiens, UniProt P18825).
T2 sequence (P18825 1-462): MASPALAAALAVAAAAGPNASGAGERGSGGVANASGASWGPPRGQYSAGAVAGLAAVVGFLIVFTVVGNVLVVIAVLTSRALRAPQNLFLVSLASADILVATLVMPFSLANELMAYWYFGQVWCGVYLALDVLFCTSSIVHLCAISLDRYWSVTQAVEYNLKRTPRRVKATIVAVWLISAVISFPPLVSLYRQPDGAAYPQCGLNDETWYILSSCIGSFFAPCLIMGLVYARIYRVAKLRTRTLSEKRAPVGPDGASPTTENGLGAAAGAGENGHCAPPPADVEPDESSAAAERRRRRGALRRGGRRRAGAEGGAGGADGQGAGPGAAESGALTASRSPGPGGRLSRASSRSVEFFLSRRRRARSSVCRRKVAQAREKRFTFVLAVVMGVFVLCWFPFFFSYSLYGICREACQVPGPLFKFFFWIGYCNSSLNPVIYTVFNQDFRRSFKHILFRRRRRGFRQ
Nature of the assay: NIMH PDSP binding screen.

The next assay deals with 5-HT6 (Homo sapiens, UniProt P50406). Nature of the assay: NIMH PDSP binding screen.
Another assay addresses T3, sigma-2 (Rattus norvegicus, UniProt Q5U3Y7).
T3 sequence (Q5U3Y7 1-176): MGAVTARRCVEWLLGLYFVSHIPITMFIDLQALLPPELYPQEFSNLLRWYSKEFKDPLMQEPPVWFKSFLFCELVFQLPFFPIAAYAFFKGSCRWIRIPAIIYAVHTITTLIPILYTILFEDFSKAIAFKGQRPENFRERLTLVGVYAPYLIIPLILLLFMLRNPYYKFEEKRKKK
Nature of the assay: NIMH PDSP binding screen.

The next assay addresses T4, α2A (Homo sapiens, UniProt P08913).
T4 sequence (P08913 1-465): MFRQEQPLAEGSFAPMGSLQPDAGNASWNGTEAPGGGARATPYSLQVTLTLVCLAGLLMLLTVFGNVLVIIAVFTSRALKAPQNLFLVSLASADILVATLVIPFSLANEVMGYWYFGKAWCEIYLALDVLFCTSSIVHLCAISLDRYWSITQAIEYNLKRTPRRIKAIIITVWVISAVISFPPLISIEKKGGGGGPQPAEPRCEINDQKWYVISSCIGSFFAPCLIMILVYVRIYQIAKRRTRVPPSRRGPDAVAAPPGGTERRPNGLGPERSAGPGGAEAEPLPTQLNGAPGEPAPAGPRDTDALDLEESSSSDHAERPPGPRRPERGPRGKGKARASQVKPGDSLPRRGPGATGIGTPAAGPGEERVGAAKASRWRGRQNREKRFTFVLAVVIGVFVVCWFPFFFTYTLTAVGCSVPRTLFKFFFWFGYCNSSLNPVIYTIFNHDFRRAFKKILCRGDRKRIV
In words: NIMH PDSP binding screen.

The target of the next assay is T5, α2B (Homo sapiens, UniProt P18089).
T5 sequence (P18089 1-450): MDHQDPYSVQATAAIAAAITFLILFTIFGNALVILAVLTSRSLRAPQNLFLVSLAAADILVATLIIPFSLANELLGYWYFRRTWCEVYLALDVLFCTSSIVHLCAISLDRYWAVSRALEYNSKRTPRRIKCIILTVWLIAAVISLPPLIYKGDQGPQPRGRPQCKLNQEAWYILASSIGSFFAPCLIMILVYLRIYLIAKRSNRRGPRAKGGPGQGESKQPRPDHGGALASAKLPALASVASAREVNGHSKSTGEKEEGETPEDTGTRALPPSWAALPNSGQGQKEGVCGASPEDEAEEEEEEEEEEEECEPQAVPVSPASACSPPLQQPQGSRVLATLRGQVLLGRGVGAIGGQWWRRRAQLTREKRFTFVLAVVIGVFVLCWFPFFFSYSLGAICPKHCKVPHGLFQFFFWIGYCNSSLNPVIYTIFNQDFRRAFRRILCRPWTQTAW
Nature of the assay: NIMH PDSP binding screen.

The next assay has as its target histaminergic H2 (Homo sapiens, UniProt P25021). Nature of the assay: NIMH PDSP binding screen.
The next assay addresses β2 (Homo sapiens, UniProt P07550). Nature of the assay: NIMH PDSP binding screen.
The subject of a further assay is NIH Swiss mice. As to conditions: mediated by the 5-HT2A receptor, ref Fantegrossi et al., 2014; cited from earlier work.
Where [3] appears, read: 25CN-NBOH 1 mg/kg SC, 5 min before session.
Setting [4] is: 25CN-NBOH 6 mg/kg SC, 5 min before session.

5-HT6, sequence (P50406 whole entry, species assumed): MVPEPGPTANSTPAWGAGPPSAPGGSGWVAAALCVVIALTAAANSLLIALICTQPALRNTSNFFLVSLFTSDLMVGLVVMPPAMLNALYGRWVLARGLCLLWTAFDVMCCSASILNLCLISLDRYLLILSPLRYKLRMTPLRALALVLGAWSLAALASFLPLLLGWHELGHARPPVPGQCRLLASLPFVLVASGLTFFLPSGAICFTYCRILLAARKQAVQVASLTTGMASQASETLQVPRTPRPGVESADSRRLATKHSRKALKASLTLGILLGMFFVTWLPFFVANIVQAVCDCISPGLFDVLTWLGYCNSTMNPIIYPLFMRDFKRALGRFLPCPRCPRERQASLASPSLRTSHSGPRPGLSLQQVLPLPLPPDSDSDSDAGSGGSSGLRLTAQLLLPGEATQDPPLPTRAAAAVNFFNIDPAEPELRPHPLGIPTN
histaminergic H2, sequence (P25021 whole entry): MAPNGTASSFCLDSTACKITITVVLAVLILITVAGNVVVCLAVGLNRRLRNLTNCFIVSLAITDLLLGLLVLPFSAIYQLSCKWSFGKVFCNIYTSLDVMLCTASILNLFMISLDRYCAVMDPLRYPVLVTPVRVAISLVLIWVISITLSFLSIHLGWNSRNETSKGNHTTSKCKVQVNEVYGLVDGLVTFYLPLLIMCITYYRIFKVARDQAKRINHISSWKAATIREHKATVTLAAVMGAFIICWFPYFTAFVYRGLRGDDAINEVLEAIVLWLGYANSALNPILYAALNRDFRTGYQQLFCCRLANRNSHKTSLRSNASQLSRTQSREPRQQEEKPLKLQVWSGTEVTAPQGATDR
β2, sequence (P07550 whole entry): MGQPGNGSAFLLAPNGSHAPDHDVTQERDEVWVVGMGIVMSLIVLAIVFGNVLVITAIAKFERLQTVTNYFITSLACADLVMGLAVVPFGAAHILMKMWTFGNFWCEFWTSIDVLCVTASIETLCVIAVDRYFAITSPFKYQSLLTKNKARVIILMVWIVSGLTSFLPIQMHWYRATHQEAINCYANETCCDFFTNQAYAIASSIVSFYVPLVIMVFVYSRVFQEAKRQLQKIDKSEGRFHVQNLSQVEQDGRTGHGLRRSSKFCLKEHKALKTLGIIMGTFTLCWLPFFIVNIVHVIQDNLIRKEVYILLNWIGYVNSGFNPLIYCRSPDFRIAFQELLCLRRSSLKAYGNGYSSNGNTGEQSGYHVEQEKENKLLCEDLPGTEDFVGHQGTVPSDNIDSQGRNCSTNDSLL

Regarding `COc1cc(CCNCc2ccccc2O)c(OC)cc1C#N.Cl` [25CN-NBOH, N-(2-hydroxybenzyl)-2,5-dimethoxy-4-cyanophenethylamine hydrochloride], the Difference limen in the assay with C57BL/6J mice [1] (setting [3]) is 1.09 ± 0.11 s; with C57BL/6J mice [1] (setting [4]), 1.65 ± 0.12 s. Moreover, the “Slope (ε)” value in the assay with C57BL/6J mice [1] (setting [3]) turned out to be 1.098±0.125. Further, the values for the T50 in the assay with C57BL/6J mice [1] (setting [3]) and in the assay on C57BL/6J mice [1] (setting [4]) were 6.33 ± 0.20 s and 7.63 ± 0.24 s, respectively. Moreover, the Trials completed with C57BL/6J mice [1] (setting [3]) was determined as 182.4±3.7; with C57BL/6J mice [1] (setting [4]), 134.5±8.4. For the same compound, the Weber fraction is recorded as 0.175±0.020 in the assay on C57BL/6J mice [1] (25CN-NBOH 1 mg/kg SC, 5 min before session, mean±SEM) and 0.217±0.015 in the assay with C57BL/6J mice [1] (setting [4]). In addition, the “%B responding (proportional choice of lever B)” value in the assay with C57BL/6J mice [1] (25CN-NBOH 6 mg/kg SC) is reported as “reduced %B responding at long stimulus intervals”; in the assay with C57BL/6J mice [1] (25CN-NBOH 0.3–3 mg/kg SC) it was “did not significantly alter %B responding”. For the same compound, in the assay on C57BL/6J mice [1] (after drug treatment that reduced %B responding at long stimulus intervals), the “Correct responding during the 10.5 s-trials” value is given as “more than 80%”. The median effective dose (ED50) with C57BL/6J mice [2] (Mus musculus, sc, 0.5 h, read-out: HTR ED50) turned out to be 0.36 mg/kg. Besides, in the assay with C57BL/6J mice [2] (SC, 30-min session), the “Dose producing the maximal HTR response” value is on record as 3 mg/kg. In addition, the inhibition constant Ki was 49.8 ± 7.4 nM at human 5-HT2C receptor; 543 nM on α2C; 573 nM on 5-HT6; 575 nM at sigma-2; 803 nM at α2A; 1230 nM on α2B. In addition, the inhibition constant (Ki) was found to be 1510 nM on histaminergic H2 and 1610 nM on β2. In the assay on NIH Swiss mice, the “Head twitch response (HTR)” value was “induce the head twitch response”.
